≈ marks a conversion by molar mass, not a printed value.
How the values were obtained:
[1] = target: Cyclin-dependent kinase 2 (Homo sapiens, UniProt P24941); assay: Inhibition of CDK2
[2] = target: Cyclin-dependent kinase 1 (Homo sapiens, UniProt P06493); assay: Inhibition of CDK1
LoVo = assay: Antiproliferative activity against human LoVo cells assessed as inhibition of BrdU incorporation after 48 hrs; format: functional, cell-based
[3] = Dissociation constant, pKa of the compound; format: physicochemical
physchem = conditions: buffer, pH 7.4
Description: Equilibrium solubility at pH 7.4 after 24 hrs

[4] = target: Cyclin-dependent kinase 9 (Homo sapiens) (UniProt P50750); assay: Inhibition of CDK9
Sequence of Cyclin-dependent kinase 9 (Homo sapiens) (P50750 whole entry): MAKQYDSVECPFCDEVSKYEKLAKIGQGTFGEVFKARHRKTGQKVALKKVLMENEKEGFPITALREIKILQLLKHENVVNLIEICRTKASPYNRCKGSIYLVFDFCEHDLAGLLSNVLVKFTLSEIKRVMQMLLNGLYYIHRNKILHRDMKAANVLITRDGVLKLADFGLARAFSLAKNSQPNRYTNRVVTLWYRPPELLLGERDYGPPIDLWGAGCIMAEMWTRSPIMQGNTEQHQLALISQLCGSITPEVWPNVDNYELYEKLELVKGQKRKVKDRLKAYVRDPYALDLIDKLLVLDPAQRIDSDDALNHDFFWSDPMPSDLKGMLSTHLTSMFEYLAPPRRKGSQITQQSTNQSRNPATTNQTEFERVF

[5] = Lipophilicity, log D of the compound; format: physicochemical; conditions: octanol/water
[6] = Protein binding in rat plasma assessed as fraction unbound; format: ADME, cell-free; conditions: read-out: PPB
[7] = target: Voltage-gated inwardly rectifying potassium channel KCNH2 (Homo sapiens, UniProt Q12809); assay: Inhibition of human ERG
Sequence of Voltage-gated inwardly rectifying potassium channel KCNH2 (Q12809 whole entry): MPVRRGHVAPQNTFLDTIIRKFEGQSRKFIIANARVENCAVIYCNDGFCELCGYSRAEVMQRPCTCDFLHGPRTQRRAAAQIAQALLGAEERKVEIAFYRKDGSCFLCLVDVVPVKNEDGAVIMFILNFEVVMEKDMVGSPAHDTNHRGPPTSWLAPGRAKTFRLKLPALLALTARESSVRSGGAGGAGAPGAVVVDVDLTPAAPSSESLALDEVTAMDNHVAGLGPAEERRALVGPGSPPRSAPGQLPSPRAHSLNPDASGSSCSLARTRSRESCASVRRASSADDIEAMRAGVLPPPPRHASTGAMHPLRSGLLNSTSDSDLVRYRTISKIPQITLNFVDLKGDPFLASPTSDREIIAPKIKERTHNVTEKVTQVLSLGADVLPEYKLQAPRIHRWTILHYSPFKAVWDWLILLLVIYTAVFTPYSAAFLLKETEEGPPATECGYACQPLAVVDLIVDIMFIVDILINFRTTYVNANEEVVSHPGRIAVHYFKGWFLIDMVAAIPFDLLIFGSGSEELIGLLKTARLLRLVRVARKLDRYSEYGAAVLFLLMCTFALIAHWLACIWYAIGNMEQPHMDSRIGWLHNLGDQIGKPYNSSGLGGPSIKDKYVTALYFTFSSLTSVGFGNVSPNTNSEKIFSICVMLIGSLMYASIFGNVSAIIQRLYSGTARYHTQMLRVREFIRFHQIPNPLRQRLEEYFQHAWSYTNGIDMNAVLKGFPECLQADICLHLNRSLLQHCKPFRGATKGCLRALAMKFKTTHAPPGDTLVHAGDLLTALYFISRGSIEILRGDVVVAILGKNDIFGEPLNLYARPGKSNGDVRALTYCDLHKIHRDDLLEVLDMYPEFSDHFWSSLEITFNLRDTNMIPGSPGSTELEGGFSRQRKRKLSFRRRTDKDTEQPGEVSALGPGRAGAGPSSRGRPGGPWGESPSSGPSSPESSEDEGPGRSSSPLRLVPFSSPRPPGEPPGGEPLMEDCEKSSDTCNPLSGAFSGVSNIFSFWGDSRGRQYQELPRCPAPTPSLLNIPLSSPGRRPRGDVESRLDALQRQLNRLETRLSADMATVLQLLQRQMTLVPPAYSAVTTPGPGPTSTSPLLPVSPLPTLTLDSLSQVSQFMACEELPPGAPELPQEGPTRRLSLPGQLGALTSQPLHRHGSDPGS

[8] = Clearance in rat at 2.5 umol/kg, iv; format: ADME, organism-based; conditions: in vivo
[9] = Volume of distribution at steady state in rat at 2.5 umol/kg, iv; format: ADME, organism-based; conditions: in vivo, read-out: Vdss
[10] = AUC in rat at 2.5 umol/kg, iv; format: ADME, organism-based; conditions: plasma
[11] = Clearance in rat at 1 umol/kg, iv; format: ADME, organism-based; conditions: in vivo
[12] = Volume of distribution at steady state in rat at 1 umol/kg, iv; format: ADME, organism-based; conditions: in vivo, read-out: Vdss
[13] = AUC in rat at 1 umol/kg, iv; format: ADME, organism-based; conditions: plasma
[14] = Stability in rat plasma; format: ADME, cell-free; conditions: read-out: Stability
[15] = Stability in dog plasma; format: ADME, cell-free, Canis lupus familiaris; conditions: read-out: Stability
[16] = Stability in human plasma; format: ADME, cell-free; conditions: read-out: Stability
[17] = Protein binding in nude mouse plasma assessed as fraction unbound; format: ADME, cell-free; conditions: read-out: PPB
[18] = Protein binding in Han/Wistar rat plasma assessed as fraction unbound; format: ADME, cell-free; conditions: read-out: PPB
Plasma = assay: Protein binding in Beagle dog plasma assessed as fraction unbound; format: ADME, cell-free, Canis lupus familiaris
[19] = Half life in nude mouse at 5 umol/kg, iv; format: ADME, organism-based; conditions: in vivo
[20] = Half life in Han/Wistar rat at 2.5 umol/kg, iv; format: ADME, organism-based; conditions: in vivo
[21] = Half life in Beagle dog at 0.2 umol/kg, iv; format: ADME, organism-based, Canis lupus familiaris; conditions: in vivo
[22] = Clearance in nude mouse at 5 umol/kg, iv; format: ADME, organism-based; conditions: in vivo
[23] = Clearance in Han/Wistar rat at 2.5 umol/kg, iv; format: ADME, organism-based; conditions: in vivo
[24] = Clearance in Beagle dog at 0.2 umol/kg, iv; format: ADME, organism-based, Canis lupus familiaris; conditions: in vivo
[25] = Volume of distribution at steady state in nude mouse at 5 umol/kg, iv; format: ADME, organism-based; conditions: in vivo, read-out: Vdss
[26] = Volume of distribution at steady state in Han/Wistar rat at 2.5 umol/kg, iv; format: ADME, organism-based; conditions: in vivo, read-out: Vdss
[27] = Volume of distribution at steady state in Beagle dog at 0.2 umol/kg, iv; format: ADME, organism-based, Canis lupus familiaris; conditions: in vivo, read-out: Vdss
Mus musculus = assay: AUC in nude mouse at 5 umol/kg, iv; format: ADME, organism-based, Plasma; conditions: in vivo
Rattus norvegicus = assay: AUC in Han/Wistar rat at 2.5 umol/kg, iv; format: ADME, organism-based, Plasma; conditions: in vivo
Canis familiaris [28] = assay: AUC in Beagle dog at 0.2 umol/kg, iv; format: ADME, organism-based, Canis lupus familiaris, Plasma; conditions: in vivo
SW-620 = assay: Antitumor activity against human SW620 cells xenografted nude mouse assessed as inhibition of tumor volume at 15 mg/kg, ip administered thrice a week for 3 weeks; format: functional; conditions: SW-620, ip, 504 h, route intraperitoneal
Canis familiaris [29] = species: Canis familiaris; assay: Clearance in Beagle dog assessed as liver blood flow; format: ADME, organism-based, Canis lupus familiaris; conditions: in vivo
Cytochrome P450 3A4 = Cytochrome P450 3A4 (Homo sapiens, UniProt P08684); assay: Inhibition of CYP3A4; format: ADME
Sequence of Cytochrome P450 3A4 (P08684 whole entry): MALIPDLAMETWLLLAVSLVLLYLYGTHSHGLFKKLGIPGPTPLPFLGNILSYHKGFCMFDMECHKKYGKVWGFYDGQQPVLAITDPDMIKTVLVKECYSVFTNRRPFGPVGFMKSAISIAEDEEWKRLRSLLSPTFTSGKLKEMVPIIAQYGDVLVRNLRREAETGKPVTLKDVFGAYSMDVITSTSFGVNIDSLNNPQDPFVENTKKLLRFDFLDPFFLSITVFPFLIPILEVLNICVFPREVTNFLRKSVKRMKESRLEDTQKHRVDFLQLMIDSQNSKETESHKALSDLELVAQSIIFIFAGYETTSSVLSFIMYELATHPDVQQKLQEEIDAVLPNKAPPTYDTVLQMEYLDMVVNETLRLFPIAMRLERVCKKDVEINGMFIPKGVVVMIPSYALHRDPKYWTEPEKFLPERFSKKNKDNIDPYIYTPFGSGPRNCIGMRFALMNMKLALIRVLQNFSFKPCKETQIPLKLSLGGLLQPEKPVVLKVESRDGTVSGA

Cytochrome P450 2D6 = Cytochrome P450 2D6 (Homo sapiens, UniProt P10635); assay: Inhibition of CYP2D6; format: ADME
Sequence of Cytochrome P450 2D6 (P10635 whole entry): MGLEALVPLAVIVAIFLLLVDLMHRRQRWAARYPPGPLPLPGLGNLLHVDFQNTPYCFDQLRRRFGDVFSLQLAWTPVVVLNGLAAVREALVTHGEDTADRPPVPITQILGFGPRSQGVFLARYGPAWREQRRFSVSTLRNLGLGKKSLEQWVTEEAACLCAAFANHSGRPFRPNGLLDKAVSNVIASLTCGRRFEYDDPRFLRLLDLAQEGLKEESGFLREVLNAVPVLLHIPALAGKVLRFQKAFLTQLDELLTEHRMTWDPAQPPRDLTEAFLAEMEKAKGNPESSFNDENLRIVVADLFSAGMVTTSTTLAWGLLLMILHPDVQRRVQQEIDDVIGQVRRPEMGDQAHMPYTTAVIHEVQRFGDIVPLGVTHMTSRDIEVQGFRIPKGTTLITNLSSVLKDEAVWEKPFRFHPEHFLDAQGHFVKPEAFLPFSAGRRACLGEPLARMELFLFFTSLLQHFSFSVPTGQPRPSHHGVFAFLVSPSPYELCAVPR

Cytochrome P450 2C9 = Cytochrome P450 2C9 (Homo sapiens, UniProt P11712); assay: Inhibition of CYP2C9; format: ADME
Sequence of Cytochrome P450 2C9 (P11712 whole entry): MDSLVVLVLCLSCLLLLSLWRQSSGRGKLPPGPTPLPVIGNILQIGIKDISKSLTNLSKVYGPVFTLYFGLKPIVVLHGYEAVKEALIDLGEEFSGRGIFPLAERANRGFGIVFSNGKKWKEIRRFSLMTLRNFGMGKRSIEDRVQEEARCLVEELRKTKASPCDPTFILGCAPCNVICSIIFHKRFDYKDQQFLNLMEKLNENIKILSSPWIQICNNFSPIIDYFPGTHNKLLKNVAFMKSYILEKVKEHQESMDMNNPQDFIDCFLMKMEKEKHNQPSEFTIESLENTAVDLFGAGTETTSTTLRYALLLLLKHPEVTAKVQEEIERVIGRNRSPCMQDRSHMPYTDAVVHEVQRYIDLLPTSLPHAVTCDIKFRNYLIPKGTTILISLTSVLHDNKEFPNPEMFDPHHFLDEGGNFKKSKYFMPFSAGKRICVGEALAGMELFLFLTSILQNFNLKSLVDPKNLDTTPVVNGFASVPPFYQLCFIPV

Cytochrome P450 2C19 = Cytochrome P450 2C19 (Homo sapiens, UniProt P33261); assay: Inhibition of CYP2C19; format: ADME
Sequence of Cytochrome P450 2C19 (P33261 whole entry): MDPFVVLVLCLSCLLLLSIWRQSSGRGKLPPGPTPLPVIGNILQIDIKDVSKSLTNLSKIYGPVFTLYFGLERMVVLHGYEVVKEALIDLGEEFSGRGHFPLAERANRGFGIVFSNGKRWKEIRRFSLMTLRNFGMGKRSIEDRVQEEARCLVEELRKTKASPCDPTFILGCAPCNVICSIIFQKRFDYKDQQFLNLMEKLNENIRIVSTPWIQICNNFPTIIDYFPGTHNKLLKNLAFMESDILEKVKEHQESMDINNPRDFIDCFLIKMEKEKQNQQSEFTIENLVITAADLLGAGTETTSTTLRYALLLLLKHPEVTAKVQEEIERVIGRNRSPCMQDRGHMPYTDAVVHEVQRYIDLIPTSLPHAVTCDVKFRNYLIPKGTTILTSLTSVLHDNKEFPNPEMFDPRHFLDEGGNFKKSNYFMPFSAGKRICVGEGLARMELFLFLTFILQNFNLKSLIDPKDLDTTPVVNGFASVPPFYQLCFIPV

Cytochrome P450 1A2 = target: T1, Cytochrome P450 1A2 (Homo sapiens, UniProt P05177); assay: Inhibition of CYP1A2; format: ADME
T1 sequence (P05177 whole entry): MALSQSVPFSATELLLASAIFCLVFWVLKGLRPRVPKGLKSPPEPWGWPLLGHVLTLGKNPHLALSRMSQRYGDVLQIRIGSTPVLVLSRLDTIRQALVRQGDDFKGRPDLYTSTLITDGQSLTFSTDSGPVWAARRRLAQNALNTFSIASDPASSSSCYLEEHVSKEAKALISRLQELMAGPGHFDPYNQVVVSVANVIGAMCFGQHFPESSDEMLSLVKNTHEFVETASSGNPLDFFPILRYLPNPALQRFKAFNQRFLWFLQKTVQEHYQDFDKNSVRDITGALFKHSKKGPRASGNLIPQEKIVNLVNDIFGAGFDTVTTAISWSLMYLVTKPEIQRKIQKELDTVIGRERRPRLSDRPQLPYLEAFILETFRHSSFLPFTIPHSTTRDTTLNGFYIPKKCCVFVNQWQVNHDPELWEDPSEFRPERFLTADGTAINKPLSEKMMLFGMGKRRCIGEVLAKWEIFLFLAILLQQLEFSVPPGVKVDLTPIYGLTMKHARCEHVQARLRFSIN

[30] = Aqueous solubility in saline at pH 5; format: physicochemical; conditions: read-out: Activity
[31] = Photostability assessed as half life; format: physicochemical
[32] = Hydrolytic stability assessed as half life at pH 4 to 10; format: physicochemical; conditions: buffer

Sequence of Cyclin-dependent kinase 1 (P06493 whole entry): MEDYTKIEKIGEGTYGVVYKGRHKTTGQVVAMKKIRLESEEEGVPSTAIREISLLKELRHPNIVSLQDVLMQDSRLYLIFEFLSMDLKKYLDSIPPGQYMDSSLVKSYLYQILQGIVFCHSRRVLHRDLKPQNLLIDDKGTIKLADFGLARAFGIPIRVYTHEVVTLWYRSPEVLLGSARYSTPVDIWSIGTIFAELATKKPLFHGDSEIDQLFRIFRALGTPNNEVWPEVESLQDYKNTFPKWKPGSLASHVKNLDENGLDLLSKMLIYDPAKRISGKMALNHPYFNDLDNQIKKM

For `Cc1ncc(-c2nc(Nc3ccc(C(=O)N4CCN(C)CC4)cc3)ncc2F)n1C(C)C`, the IC50 [1] was 0.018 µM, the IC50 [2] was 0.13 µM and the IC50 (LoVo) was 0.17 µM. The pKa [3] was 6.9 and the solubility thermodynamic at 24 h (physchem) was 60 µM (≈ 26.3 µg/mL).
For `CCCN(C)[C@H]1CCN(C(=O)c2ccc(Nc3nccc(-c4cnc(C)n4C(C)C)n3)cc2)C1`, the IC50 [1] was 0.004 µM, the IC50 [2] was 0.12 µM and the IC50 (LoVo) was 0.062 µM.
For `Cc1ncc(-c2ccnc(Nc3ccc(C(=O)NC4CCN(C)CC4)cc3)n2)n1C(C)C`, the IC50 [1] was 0.037 µM, the IC50 [2] was 0.18 µM and the IC50 (LoVo) was 2.1 µM.
`Cc1ncc(-c2ccnc(Nc3ccc(C(=O)NCCN(C)C)c(F)c3)n2)n1C(C)C` showed an IC50 [2] of 0.029 µM, an IC50 (LoVo) of 0.003 µM and a solubility thermodynamic at 24 h (physchem) of over 1900 µM.
With `Cc1ncc(-c2nc(Nc3ccc(C(=O)NCCN(C)C)c(F)c3)ncc2F)n1C(C)C` the IC50 [1] was 0.002 µM, the IC50 [2] was under 0.001 µM and the IC50 (LoVo) was 0.002 µM. For the same molecule, the pKa [3] was 8.6, the Activity [4] was 0.003 µM and the logD [5] was 2.3. It also gave a fraction unbound [6] of 0.07, an Activity [7] of over 65 µM and a clearance [8] of 1.44 L/h/kg. The Vd [9] was 9.8 L/kg, the AUC [10] was 800 nM·h and the solubility thermodynamic at 24 h (physchem) was over 2700 µM.
With `Cc1ncc(-c2nc(Nc3ccc(C(=O)NC4CCN(C)CC4)cc3)ncc2F)n1C(C)C` the IC50 [1] was 0.036 µM, the IC50 [2] was 0.05 µM and the IC50 (LoVo) was 0.32 µM. For the same molecule, the solubility thermodynamic at 24 h (physchem) was over 2500 µM.
Work on `Cc1ncc(-c2ccnc(Nc3ccc(C(=O)N4CCN(C)CC4)cc3)n2)n1C(C)C` yielded an IC50 [1] of 0.009 µM, an IC50 [2] of 0.071 µM and an IC50 (LoVo) of 0.52 µM. For the same molecule, the pKa [3] was 7.
In the case of `Cc1ncc(-c2nc(Nc3ccc(C(=O)N4CCCN(C)CC4)cc3)ncc2F)n1C(C)C`, the IC50 [1] is reported as 0.002 µM, the IC50 [2] is reported as 0.005 µM and the IC50 (LoVo) is reported as 0.04 µM. The pKa [3] was 8.1, the Activity [4] was 0.012 µM and the logD [5] was 2. For the same molecule, the fraction unbound [6] was 0.07, the Activity [7] was over 32 µM and the clearance [11] was 1.68 L/h/kg. It also gave a Vd [12] of 1.5 L/kg, an AUC [13] of 300 nM·h and a solubility thermodynamic at 24 h (physchem) of over 2600 µM.
Molecule `CN[C@H]1CCN(C(=O)c2ccc(Nc3nccc(-c4cnc(C)n4C(C)C)n3)cc2)C1` has an IC50 [1] of 0.002 µM, an IC50 [2] of 0.009 µM and an IC50 (LoVo) of 0.18 µM.
For `Cc1ncc(-c2nc(Nc3ccc(C(=O)N4CC[C@H](N(C)C)C4)cc3)ncc2F)n1C(C)C`, the IC50 [2] was 0.011 µM, the IC50 (LoVo) was 0.037 µM and the pKa [3] was 7.4. The Activity [4] was 0.005 µM, the logD [5] was 2.1 and the fraction unbound [6] was 0.04. For the same molecule, the Activity [7] was 33 µM, the clearance [8] was 1.38 L/h/kg and the Vd [9] was 3.4 L/kg. The AUC [10] was 800 nM·h and the solubility thermodynamic at 24 h (physchem) was over 2100 µM.
Work on `Cc1ncc(-c2ccnc(Nc3ccc(C(=O)NC4CCN(C)CC4)c(F)c3)n2)n1C(C)C` yielded an IC50 [1] of 0.011 µM, an IC50 [2] of 0.15 µM and an IC50 (LoVo) of 0.2 µM. The solubility thermodynamic at 24 h (physchem) was over 2200 µM.
For `CN[C@H]1CCN(C(=O)c2ccc(Nc3ncc(F)c(-c4cnc(C)n4C(C)C)n3)cc2)C1`, the half-life [14] was over 18 h, the half-life [15] was over 18 h and the half-life [16] was over 18 h. For the same molecule, the fraction unbound [17] was 0.16, the fraction unbound [18] was 0.04 and the PPB (Plasma) was over 67%. It also gave a half-life [19] of 3.4 h, a half-life [20] of 3.6 h and a half-life [21] of 32.3 h. For the same molecule, the clearance [22] was 2.1 L/h/kg, the clearance [23] was 1.8 L/h/kg and the clearance [24] was 1.14 L/h/kg. It also gave a Vd [25] of 5.1 L/kg, a Vd [26] of 6.4 L/kg and a Vd [27] of 40.4 L/kg. For the same molecule, the AUC (Mus musculus) was 2400 nM·h, the AUC (Rattus norvegicus) was 1380 nM·h and the AUC (Canis familiaris [28]) was 180 nM·h. The inhibition in vivo at 15 mg/kg (SW-620) was 55%, the “%hepatic blood flow” value (Canis familiaris [29]) was 58% and the IC50 [1] was 0.002 µM. For the same molecule, the IC50 [2] was 0.002 µM, the IC50 (LoVo) was 0.039 µM and the logD [5] was 1.45. It also gave an Activity [7] of 95 µM, an Activity (Cytochrome P450 3A4) of over 10 µM and an Activity (Cytochrome P450 2D6) of over 10 µM. The Activity (Cytochrome P450 2C9) was over 10 µM, the Activity (Cytochrome P450 2C19) was over 10 µM and the Activity (Cytochrome P450 1A2) was over 10 µM. The solubility [30] was over 50 µM, the half-life [31] was over 24 h and the half-life [32] was over 100 days.
`Cc1ncc(-c2ccnc(Nc3ccc(C(=O)N4CC[C@H](NC5CC5)C4)cc3)n2)n1C(C)C` showed an IC50 [1] of under 0.001 µM, an IC50 [2] of 0.1 µM and an IC50 (LoVo) of 0.25 µM.
Work on `Cc1ncc(-c2nc(Nc3ccc(C(=O)N4CC[C@@H](N(C)C)C4)cc3)ncc2F)n1C(C)C` yielded an IC50 [2] of 0.011 µM, an IC50 (LoVo) of 0.07 µM and a solubility thermodynamic at 24 h (physchem) of over 2400 µM.
In the case of `Cc1ncc(-c2nc(Nc3ccc(C(=O)NC4CCN(C)CC4)c(F)c3)ncc2F)n1C(C)C`, the IC50 [1] is reported as 0.001 µM, the IC50 [2] is reported as 0.012 µM and the IC50 (LoVo) is reported as 0.08 µM. The pKa [3] was 8.8, the Activity [4] was 0.013 µM and the logD [5] was 2.4. For the same molecule, the fraction unbound [6] was 0.06, the clearance [8] was 0.96 L/h/kg and the Vd [9] was 5.2 L/kg. The AUC [10] was 1300 nM·h and the solubility thermodynamic at 24 h (physchem) was 270 µM (≈ 127 µg/mL).
